This is an account of results in patent US20230348401A1, “Inhibitors of Glucose-6-phosphate Dehydrogenase and Uses Thereof” (The Trustees of Princeton University, priority 2020, published 2023).

A value given as a limit tells only on which side of the number the result lay.

The subject of one assay is colony formation. The assay can be described thus: Colony formation. It is filed as cell-based. The note with it: dose-response; rescued by exogenous antioxidants.
Assay [1] deals with mouse CD8+ and CD4+ T cells. The assay can be described thus: Metabolites and 1-2H-glucose tracing in active T cells. Type of assay: cell-based. The method, then: Cells were cultured in complete RPMI media (RPMI 1640 supplemented with 10% FBS, 100 U/ml penicillin, 100 µg/ml streptomycin, and 50 µM 2-mercaptoethanol). Naïve T cells were either rested in complete RPMI media supplemented with recombinant IL-7 (50U/mL) or stimulated for 48 hours with plate-bound anti-CD3 (10 µg/ml) and anti-CD28 (5 µg/ml) in complete RPMI media supplemented with 100 µM alanine and recombinant IL-2 (100 U/mL). Activated T cells were maintained in complete RPMI media supplemented with recombinant IL-2 (100 U/mL). All experiments on “active” T cells were performed at day 4-5 post-activation
For all experiments involving stable isotope tracers (e.g., 1-^2H-glucose), the isotope tracer nutrient was substituted for unlabeled nutrient at the same concentration normally found in the base media for a given cell type (e.g., DMEM for HCT116, RPMI for T cells, etc.). In addition, dialyzed FBS was used as a supplement in place of FBS.
For suspension cells (including T cells and red blood cells), 2×10^6 cells were seeded in 1 mL of media in 12-well plates and incubated with appropriate media, which included isotope tracers and/or chemical inhibitors and/or cytokines, as described. For all experiments involving small molecule agents, DMSO concentrations were <0.2%. After 2 hours, cell suspensions were transferred to 1.5 mL tubes and pelleted (30 seconds, 6000 rpm, room temperature). Media was removed by aspiration and metabolome extraction was performed by the addition of 75 µL of ice cold solvent (40:40:20 ACN:MeOH:H2O + 0.5%FA). After a 5-minute incubation on ice, acid was neutralized by the addition of NH4HCO3. After centrifugation (15 minutes, 16000 rpm, 4° C.), the resulting supernatant was transferred to a clean tube, frozen on dry ice and kept at -80° C. until LC-MS analysis.

For another assay, the system named is active CD8+ T cells. The assay can be described thus: Absolute oxPPP flux by 14CO2 emission. The note with it: 10 uM. It is filed as cell-based, mouse. As for the experimental part:
Glucose oxidation flux through oxPPP was determined from difference in the rate of ^14CO2 released from [1-^14C]-glucose and [6-^14C]-glucose, as previously described with some modification. RPMI 1640 media without sodium bicarbonate was supplemented with 0.74 g/L of NaHCO3, 2.5 mM HEPES pH 7.4, 10% dFBS, and 1% of either 1-^14C-glucose or 6-^14C-glucose. Three million primary mouse naïve (rested in IL-7) or active CD8+ T cells (in the presence of IL2 and 0.1% DMSO or 10 uM G6PDi-1) were incubated for 4 hours in a sealed 12.5 cm^2 flask. To facilitate the collection of ^14CO2, 100 µL of a 10 M KOH solution was introduced into the sealed flask using a center well for incubation flask (8823200000, DWK Life Sciences). The assay was stopped by injection of 1 mL 1 M HCL, and the KOH solution then transferred to scintillation vials containing 10 mL scintillation solution for counting. The signal was corrected for the percentage of radioactive tracer in the medium. OxPPP flux is calculated as follows: […]

A further assay deals with mouse neutrophils. The assay can be described thus: Neutrophil oxidative burst assay (mouse). Type of assay: cell-based. The settings on record: PMA, 50 µM. As for the experimental part:
Murine neutrophils were isolated from 8-12-week old C56BL/6 mice. Mice were bred and maintained according to the University of Wisconsin Institutional Animal Care and Use Committee (Protocol No. M006219). Mice were euthanized by cervical dislocation, and bone marrow cells were harvested from femur and tibia within 30 minutes. Cell suspensions were passed through a 70-µm cell strainer. Neutrophils were prepared using a negative selection kit (EasySep Mouse Neutrophil Enrichment Kit, Stem Cell Technologies), following the manufacturer’s instructions. Cells were cultured in RPMI 1640 media supplemented with 10% heat-inactivated FBS, 100 U/ml penicillin, 100 µg/ml streptomycin, 5 mM HEPES, and 2 mM EDTA. To stimulate neutrophils, 100 nM phorbol 12-myristate 13-acetate (PMA) (Cayman Chemical) was added to the media; metabolites were extracted after 30 minutes of stimulation.
Suspended neutrophils were plated in culture wells pre-coated with CELL-TAK™ (Corning), spun at 200 × g for 1 minute with minimal acceleration/deceleration, and then incubated for 1 hour at 37° C. Murine neutrophils were plated at 2×10^5 cells/well in RPMI 1640 media without sodium bicarbonate. […] Oxidative burst was stimulated with PMA (100 nM, Cayman Chemical); oxygen consumption rate was measured using the XF-96e extracellular flux analyzer (Seahorse Bioscience).

The next assay relates to human neutrophils. Kind of assay: Neutrophil oxidative burst assay (human). The note with it: PMA, 50 µM. Type of assay: cell-based. As for the experimental part: Human neutrophils were isolated from 8 ml of blood collected from healthy donors following the protocol approved by the University of Wisconsin Institutional Review Board (Protocol No. 2019-1031-CP001). Neutrophils were purified using the MACSxpress Whole Blood Neutrophil Isolation Kit (Miltenyi Biotec 130-104-434) followed by erythrocyte depletion (Miltenyi Biotec 130-098-196) according to the manufacturer’s instructions.
Suspended neutrophils were plated in culture wells pre-coated with CELL-TAK™ (Corning), spun at 200 × g for 1 minute with minimal acceleration/deceleration, and then incubated for 1 hour at 37° C. Murine neutrophils were plated at 2×10^5 cells/well in RPMI 1640 media without sodium bicarbonate. Human neutrophils were plated at 5×10^4 cells/well in RPMI 1640 media supplemented with 0.1% human serum albumin. Inhibitor (G6PDi-1, 50 µM) or vehicle control were added just prior to starting the assay. Mouse neutrophils were also treated with rotenone (0.5 µM, BioVision) + antimycin A (0.5 µM, BioVision) at t = 20 minutes. Oxidative burst was stimulated with PMA (100 nM, Cayman Chemical); oxygen consumption rate was measured using the XF-96e extracellular flux analyzer (Seahorse Bioscience).

A further assay deals with G6PD (Homo sapiens, UniProt P11413). The assay can be described thus: G6PD enzymatic activity by LC-MS (6-pg production). Type of assay: biochemical. The settings on record: orthogonal LC-MS assay. Further details: Partially truncated human G6PD (residues 28-515, Uniprot ID P11413); His6 with thrombin cleavage site (N, cleaved yes); made in house; host or cells: Escherichia coli BL21(DE3)pLysS. The method, then:
Aliquots of reaction mixture were collected at indicated time points and rapidly quenched by diluting (1:5) into methanol precooled on dry ice. The mixtures were centrifuged at 13,000 rcf for 20 minutes at 4° C., and the resulting supernatants were diluted (1:20) into 40:40:20 methanol/ acetonitrile/ water and analyzed by LC-MS.

G6PD, sequence (P11413 28-515): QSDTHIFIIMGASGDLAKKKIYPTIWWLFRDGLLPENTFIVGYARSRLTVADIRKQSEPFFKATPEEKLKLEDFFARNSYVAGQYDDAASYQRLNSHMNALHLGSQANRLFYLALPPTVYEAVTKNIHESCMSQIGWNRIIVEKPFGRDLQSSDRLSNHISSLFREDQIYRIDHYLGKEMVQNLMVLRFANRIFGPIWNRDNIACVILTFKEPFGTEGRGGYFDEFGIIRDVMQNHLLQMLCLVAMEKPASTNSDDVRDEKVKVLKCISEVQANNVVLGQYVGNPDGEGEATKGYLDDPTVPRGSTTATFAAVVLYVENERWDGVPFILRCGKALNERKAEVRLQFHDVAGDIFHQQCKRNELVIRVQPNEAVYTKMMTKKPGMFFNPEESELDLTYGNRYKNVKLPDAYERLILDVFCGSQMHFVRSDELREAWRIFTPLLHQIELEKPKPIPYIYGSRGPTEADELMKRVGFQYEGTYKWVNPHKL

As to `N#Cc1cc(Nc2ncc3c(n2)CCCCC3=O)cs1` [Compound 2, 4-([5-oxo-6H,7H,8H,9H-cyclohepta[d]pyrimidin-2-yl]amino)thiophene-2-carbonitrile], the colony formation result in the assay with colony formation is recorded as “dose-dependent decrease”. For the same molecule, in assay [1] (10 µM, day 4-5 post-activation), the “NADPH and 6-pg levels” value is “decreased”. Besides, the “2H transfer from glucose to NADPH” value in assay [1] (10 µM, day 4-5 post-activation, 1-2H-glucose) is “completely blocked”. The fatty acid synthesis entry in assay [1] (CD8+ T cells) is reported as “nearly completely ablated”. Besides, the “time to effects on NADPH labeling and NADP+, NADPH and 6-pg levels” value in assay [1] (active CD8+ T cells, 50 µM) is at most 10 min. The “time to restoration of NADPH, NADP+ and 6-pg levels after removing the inhibitor” value in assay [1] (active T cells) is at most 2 h. The “absolute oxPPP flux” value in the assay with active CD8+ T cells is recorded as “blocked”. In addition, the “oxidative burst (oxygen consumption rate)” value in the assay with mouse neutrophils and in the assay with human neutrophils was “decreased oxidative burst” in each case. Further, the “6-pg production by recombinant human G6PD” value at G6PD is given as “demonstrated in vitro inhibition of G6PD activity”.
